Data published in ChEMBL document CHEMBL3797052 (Eur J Med Chem, 2016).

Tested on: not listed separately
Test: Antiproliferative activity against human LOXIMVI cells assessed as cell growth at 10^-5 M after 48 hrs by sulforhodamine B assay
Type: functional
Conditions: LOX IMVI, read-out: Activity
For `CNC(=O)c1cc(Oc2ccc3nc(NC(=O)Nc4cc(C(F)(F)F)cc(C(F)(F)F)c4)sc3c2)ccn1`, the growth at 10 µM was -93%.

Tested on: not listed separately
Test: Antiproliferative activity against human SF268 cells assessed as cell growth at 10^-5 M after 48 hrs by sulforhodamine B assay
Type: functional
Conditions: SF-268, 48 h, read-out: Activity
In the case of `CNC(=O)c1cc(Oc2ccc3nc(NC(=O)Nc4cc(C(F)(F)F)cc(C(F)(F)F)c4)sc3c2)ccn1`, the growth at 10 µM was -77%.

Tested on: U-251
Test: Antiproliferative activity against human U251 cells assessed as growth inhibition after 48 hrs by sulforhodamine B assay
Type: functional
Conditions: U-251, 48 h
Molecule `CNC(=O)c1cc(Oc2ccc3nc(NC(=O)Nc4cc(C(F)(F)F)cc(C(F)(F)F)c4)sc3c2)ccn1` has a GI50 of 1.02 µM, an LC50 of 4.78 µM and a TGI of 2.2 µM.

Tested on: not listed separately
Test: Antiproliferative activity against human SF539 cells assessed as cell growth at 10^-5 M after 48 hrs by sulforhodamine B assay
Type: functional
Conditions: SF-539, 48 h, read-out: Activity
With `CNC(=O)c1cc(Oc2ccc3nc(NC(=O)Nc4cc(C(F)(F)F)cc(C(F)(F)F)c4)sc3c2)ccn1` the growth at 10 µM was -78%.

Tested on: SK-MEL-5
Test: Antiproliferative activity against human SK-MEL-5 cells assessed as cell growth at 10^-5 M after 48 hrs by sulforhodamine B assay
Type: functional
Conditions: SK-MEL-5, 48 h, read-out: Activity
In the case of `CNC(=O)c1cc(Oc2ccc3nc(NC(=O)Nc4cc(C(F)(F)F)cc(C(F)(F)F)c4)sc3c2)ccn1`, the growth at 10 µM was -76%.

Tested on: not listed separately
Test: Antiproliferative activity against human UACC62 cells assessed as cell growth at 10^-5 M after 48 hrs by sulforhodamine B assay
Type: functional
Conditions: UACC-62, 48 h, read-out: Activity
For `CNC(=O)c1cc(Oc2ccc3nc(NC(=O)Nc4cc(C(F)(F)F)cc(C(F)(F)F)c4)sc3c2)ccn1`, the growth at 10 µM was -77%.

Tested on: HT-29
Test: Antiproliferative activity against human HT-29 cells assessed as cell growth at 10^-5 M after 48 hrs by sulforhodamine B assay
Type: functional
Conditions: HT-29, 48 h, read-out: Activity
Work on `CNC(=O)c1cc(Oc2ccc3nc(NC(=O)Nc4cc(C(F)(F)F)cc(C(F)(F)F)c4)sc3c2)ccn1` yielded a growth at 10 µM of -80%.

Tested on: CCRF-CEM
Test: Antiproliferative activity against human CCRF-CEM cells assessed as cell growth at 10^-5 M after 48 hrs by sulforhodamine B assay
Type: functional
Conditions: read-out: Activity
`CNC(=O)c1cc(Oc2ccc3nc(NC(=O)Nc4cc(C(F)(F)F)cc(C(F)(F)F)c4)sc3c2)ccn1` gave a growth at 10 µM of -16%.

Tested on: A549
Test: Antiproliferative activity against human A549/ATCC cells assessed as cell growth at 10^-4 M after 48 hrs by sulforhodamine B assay
Type: functional
Conditions: A549, 48 h, read-out: Activity
`CNC(=O)c1cc(Oc2ccc3nc(NC(=O)Nc4cc(C(F)(F)F)cc(C(F)(F)F)c4)sc3c2)ccn1` gave a growth at 100 µM of -97%.

Tested on: ACHN
Test: Antiproliferative activity against human ACHN cells assessed as cell growth at 10^-7 M after 48 hrs by sulforhodamine B assay
Type: functional
Conditions: read-out: Activity
In the case of `CNC(=O)c1cc(Oc2ccc3nc(NC(=O)Nc4cc(C(F)(F)F)cc(C(F)(F)F)c4)sc3c2)ccn1`, the growth at 0.1 µM was 99%.

Tested on: not listed separately
Test: Antiproliferative activity against human PC3 cells assessed as cell growth at 10^-5 M after 48 hrs by sulforhodamine B assay
Type: functional
Conditions: PC-3, 48 h, read-out: Activity
Molecule `CNC(=O)c1cc(Oc2ccc3nc(NC(=O)Nc4cc(C(F)(F)F)cc(C(F)(F)F)c4)sc3c2)ccn1` has a growth at 10 µM of -65%.

Tested on: SR
Test: Antiproliferative activity against human SR cells assessed as cell growth at 10^-5 M after 48 hrs by sulforhodamine B assay
Type: functional
Conditions: read-out: Activity
For `CNC(=O)c1cc(Oc2ccc3nc(NC(=O)Nc4cc(C(F)(F)F)cc(C(F)(F)F)c4)sc3c2)ccn1`, the growth at 10 µM was -47%.

Tested on: NCI-H522
Test: Antiproliferative activity against human NCI-H522 cells assessed as growth inhibition after 48 hrs by sulforhodamine B assay
Type: functional
Conditions: NCI-H522, 48 h
Molecule `CNC(=O)c1cc(Oc2ccc3nc(NC(=O)Nc4cc(C(F)(F)F)cc(C(F)(F)F)c4)sc3c2)ccn1` has a GI50 of 0.534 µM, an LC50 (concentration killing 50% of cells) of 8.1 µM and a TGI of 2.28 µM.

Tested on: not listed separately
Test: Antiproliferative activity against human RXF393 cells assessed as cell growth at 10^-5 M after 48 hrs by sulforhodamine B assay
Type: functional
Conditions: RXF 393, 48 h, read-out: Activity
In the case of `CNC(=O)c1cc(Oc2ccc3nc(NC(=O)Nc4cc(C(F)(F)F)cc(C(F)(F)F)c4)sc3c2)ccn1`, the growth at 10 µM was -69%.

Tested on: ACHN
Test: Antiproliferative activity against human ACHN cells assessed as cell growth at 10^-5 M after 48 hrs by sulforhodamine B assay
Type: functional
Conditions: read-out: Activity
Molecule `CNC(=O)c1cc(Oc2ccc3nc(NC(=O)Nc4cc(C(F)(F)F)cc(C(F)(F)F)c4)sc3c2)ccn1` has a growth at 10 µM of -77%.

Tested on: not listed separately
Test: Antiproliferative activity against human HL-60(TB) cells assessed as cell growth at 10^-8 M after 48 hrs by sulforhodamine B assay
Type: functional
Conditions: HL-60, 48 h, read-out: Activity
`CNC(=O)c1cc(Oc2ccc3nc(NC(=O)Nc4cc(C(F)(F)F)cc(C(F)(F)F)c4)sc3c2)ccn1` showed a growth at 0.01 µM of 110%.

Tested on: NCI-H23
Test: Antiproliferative activity against human NCI-H23 cells assessed as cell growth at 10^-5 M after 48 hrs by sulforhodamine B assay
Type: functional
Conditions: NCI-H23, 48 h, read-out: Activity
With `CNC(=O)c1cc(Oc2ccc3nc(NC(=O)Nc4cc(C(F)(F)F)cc(C(F)(F)F)c4)sc3c2)ccn1` the growth at 10 µM was -59%.

Tested on: not listed separately
Test: Antiproliferative activity against human SNB19 cells assessed as cell growth at 10^-5 M after 48 hrs by sulforhodamine B assay
Type: functional
Conditions: SNB-19, 48 h, read-out: Activity
`CNC(=O)c1cc(Oc2ccc3nc(NC(=O)Nc4cc(C(F)(F)F)cc(C(F)(F)F)c4)sc3c2)ccn1` showed a growth at 10 µM of -34%.

Tested on: not listed separately
Test: Antiproliferative activity against human SF295 cells assessed as cell growth at 10^-5 M after 48 hrs by sulforhodamine B assay
Type: functional
Conditions: SF-295, 48 h, read-out: Activity
Molecule `CNC(=O)c1cc(Oc2ccc3nc(NC(=O)Nc4cc(C(F)(F)F)cc(C(F)(F)F)c4)sc3c2)ccn1` has a growth at 10 µM of -89%.

Tested on: not listed separately
Test: Antiproliferative activity against human OVCAR5 cells assessed as cell growth at 10^-5 M after 48 hrs by sulforhodamine B assay
Type: functional
Conditions: OVCAR-5, 48 h, read-out: Activity
Molecule `CNC(=O)c1cc(Oc2ccc3nc(NC(=O)Nc4cc(C(F)(F)F)cc(C(F)(F)F)c4)sc3c2)ccn1` has a growth at 10 µM of -64%.

Tested on: NCI-H322M
Test: Antiproliferative activity against human NCI-H322M cells assessed as cell growth at 10^-5 M after 48 hrs by sulforhodamine B assay
Type: functional
Conditions: read-out: Activity
With `CNC(=O)c1cc(Oc2ccc3nc(NC(=O)Nc4cc(C(F)(F)F)cc(C(F)(F)F)c4)sc3c2)ccn1` the growth at 10 µM was -57%.

Tested on: U-251
Test: Antiproliferative activity against human U251 cells assessed as cell growth at 10^-5 M after 48 hrs by sulforhodamine B assay
Type: functional
Conditions: U-251, 48 h, read-out: Activity
Molecule `CNC(=O)c1cc(Oc2ccc3nc(NC(=O)Nc4cc(C(F)(F)F)cc(C(F)(F)F)c4)sc3c2)ccn1` has a growth at 10 µM of -98%.

Tested on: MCF7
Test: Antiproliferative activity against human MCF7 cells assessed as cell growth at 10^-6 M after 48 hrs by sulforhodamine B assay
Type: functional
Conditions: MCF7, 48 h, read-out: Activity
Work on `CNC(=O)c1cc(Oc2ccc3nc(NC(=O)Nc4cc(C(F)(F)F)cc(C(F)(F)F)c4)sc3c2)ccn1` yielded a growth at 1 µM of 52%.

Tested on: EKVX
Test: Antiproliferative activity against human EKVX cells assessed as cell growth at 10^-5 M after 48 hrs by sulforhodamine B assay
Type: functional
Conditions: read-out: Activity
Work on `CNC(=O)c1cc(Oc2ccc3nc(NC(=O)Nc4cc(C(F)(F)F)cc(C(F)(F)F)c4)sc3c2)ccn1` yielded a growth at 10 µM of -31%.

Tested on: not listed separately
Test: Antiproliferative activity against human OVCAR3 cells assessed as cell growth at 10^-8 M after 48 hrs by sulforhodamine B assay
Type: functional
Conditions: OVCAR-3, 48 h, read-out: Activity
For `CNC(=O)c1cc(Oc2ccc3nc(NC(=O)Nc4cc(C(F)(F)F)cc(C(F)(F)F)c4)sc3c2)ccn1`, the growth at 0.01 µM was 101%.

Tested on: not listed separately
Test: Antiproliferative activity against human HL-60(TB) cells assessed as cell growth at 10^-5 M after 48 hrs by sulforhodamine B assay
Type: functional
Conditions: HL-60, 48 h, read-out: Activity
`CNC(=O)c1cc(Oc2ccc3nc(NC(=O)Nc4cc(C(F)(F)F)cc(C(F)(F)F)c4)sc3c2)ccn1` showed a growth at 10 µM of -46%.

Tested on: not listed separately
Test: Antiproliferative activity against human UACC62 cells assessed as cell growth at 10^-4 M after 48 hrs by sulforhodamine B assay
Type: functional
Conditions: UACC-62, 48 h, read-out: Activity
`CNC(=O)c1cc(Oc2ccc3nc(NC(=O)Nc4cc(C(F)(F)F)cc(C(F)(F)F)c4)sc3c2)ccn1` showed a growth at 100 µM of -73%.

Tested on: not listed separately
Test: Antiproliferative activity against human SW620 cells assessed as cell growth at 10^-5 M after 48 hrs by sulforhodamine B assay
Type: functional
Conditions: SW-620, 48 h, read-out: Activity
With `CNC(=O)c1cc(Oc2ccc3nc(NC(=O)Nc4cc(C(F)(F)F)cc(C(F)(F)F)c4)sc3c2)ccn1` the growth at 10 µM was -74%.

Tested on: K562
Test: Antiproliferative activity against human K562 cells assessed as cell growth at 10^-5 M after 48 hrs by sulforhodamine B assay
Type: functional
Conditions: K562, 48 h, read-out: Activity
With `CNC(=O)c1cc(Oc2ccc3nc(NC(=O)Nc4cc(C(F)(F)F)cc(C(F)(F)F)c4)sc3c2)ccn1` the growth at 10 µM was -20%.

Tested on: not listed separately
Test: Antiproliferative activity against human OVCAR3 cells assessed as growth inhibition after 48 hrs by sulforhodamine B assay
Type: functional
Conditions: OVCAR-3, 48 h
Molecule `CNC(=O)c1cc(Oc2ccc3nc(NC(=O)Nc4cc(C(F)(F)F)cc(C(F)(F)F)c4)sc3c2)ccn1` has a GI50 of 1.03 µM, an LC50 of 5.04 µM and a TGI of 2.27 µM.

Tested on: not listed separately
Test: Antiproliferative activity against human DU145 cells assessed as cell growth at 10^-5 M after 48 hrs by sulforhodamine B assay
Type: functional
Conditions: DU-145, 48 h, read-out: Activity
For `CNC(=O)c1cc(Oc2ccc3nc(NC(=O)Nc4cc(C(F)(F)F)cc(C(F)(F)F)c4)sc3c2)ccn1`, the growth at 10 µM was -69%.

Tested on: not listed separately
Test: Antiproliferative activity against human BT549 cells assessed as cell growth at 10^-7 M after 48 hrs by sulforhodamine B assay
Type: functional
Conditions: BT-549, 48 h, read-out: Activity
For `CNC(=O)c1cc(Oc2ccc3nc(NC(=O)Nc4cc(C(F)(F)F)cc(C(F)(F)F)c4)sc3c2)ccn1`, the growth at 0.1 µM was 96%.

Tested on: not listed separately
Test: Antiproliferative activity against human HCT116 cells assessed as cell growth at 10^-5 M after 48 hrs by sulforhodamine B assay
Type: functional
Conditions: HCT-116, 48 h, read-out: Activity
`CNC(=O)c1cc(Oc2ccc3nc(NC(=O)Nc4cc(C(F)(F)F)cc(C(F)(F)F)c4)sc3c2)ccn1` gave a growth at 10 µM of -90%.

Tested on: not listed separately
Test: Antiproliferative activity against human HCC2998 cells assessed as cell growth at 10^-5 M after 48 hrs by sulforhodamine B assay
Type: functional
Conditions: HCC 2998, 48 h, read-out: Activity
`CNC(=O)c1cc(Oc2ccc3nc(NC(=O)Nc4cc(C(F)(F)F)cc(C(F)(F)F)c4)sc3c2)ccn1` showed a growth at 10 µM of -64%.

Tested on: MDA-MB-435
Test: Antiproliferative activity against human MDA-MB-435 cells assessed as cell growth at 10^-5 M after 48 hrs by sulforhodamine B assay
Type: functional
Conditions: MDA-MB-435, 48 h, read-out: Activity
Molecule `CNC(=O)c1cc(Oc2ccc3nc(NC(=O)Nc4cc(C(F)(F)F)cc(C(F)(F)F)c4)sc3c2)ccn1` has a growth at 10 µM of -69%.

Tested on: not listed separately
Test: Antiproliferative activity against human NCI-ADR-RES cells assessed as cell growth at 10^-5 M after 48 hrs by sulforhodamine B assay
Type: functional
Conditions: read-out: Activity
`CNC(=O)c1cc(Oc2ccc3nc(NC(=O)Nc4cc(C(F)(F)F)cc(C(F)(F)F)c4)sc3c2)ccn1` showed a growth at 10 µM of -62%.

Tested on: MDA-MB-468
Test: Antiproliferative activity against human MDA-MB-468 cells assessed as cell growth at 10^-5 M after 48 hrs by sulforhodamine B assay
Type: functional
Conditions: MDA-MB-468, 48 h, read-out: Activity
`CNC(=O)c1cc(Oc2ccc3nc(NC(=O)Nc4cc(C(F)(F)F)cc(C(F)(F)F)c4)sc3c2)ccn1` showed a growth at 10 µM of -70%.
